Assay results reported in patent publication US20080286785A1, “Method to predict or monitor the response of a patient to an erbb receptor drug” (AstraZeneca UK Limited, priority 2005, published 2008).
Where two headings read alike, the source gives them in different places.

Experiments:
[1] = N. Engl. J. Med. 2004; 350(21):2129-2139; cited from earlier work
[2] = all of the patients treated with gefitinib, 250 mg daily orally
[3] = four patients with EGFR mutations detected in tumour samples
[4] = patients with EGFR mutations in serum
[5] = patients without EGFR mutations in serum
[6] = serum EGFR mutation + by EGFR Scorpion Kit
[7] = serum EGFR mutation + by direct sequence
[8] = serum EGFR mutation − by EGFR Scorpion Kit
[9] = serum EGFR mutation − by direct sequence

COc1cc2ncnc(Nc3ccc(F)c(Cl)c3)c2cc1OCCCN1CCOCC1 [gefitinib]
patients that have a rapid and often dramatic clinical response [1]: about 10% | Response PD (progressive disease), number of patients (NSCLC; 28 patients enrolled, RECIST): 11 n | Response PR (partial response), number of patients (NSCLC; 28 patients enrolled, RECIST): 9 n | Response SD (stable disease), number of patients (NSCLC; 28 patients enrolled, RECIST): 8 n | median OS (NSCLC; [2]): 306 days | median PFS (NSCLC; [2]): 98 days | responses to gefitinib: PD, number of patients (NSCLC; [3]): 1 | responses to gefitinib: PR, number of patients (NSCLC; [3]): 2 | responses to gefitinib: SD, number of patients (NSCLC; [3]): 1 | median OS (NSCLC; [4]): 611 days | median PFS (NSCLC; [4]): 200 days | median OS (NSCLC; [5]): 232 days | median PFS (NSCLC; [5]): 46 days | Response to gefitinib PD, number of patients (NSCLC; [6]): 2 | Response to gefitinib PR/SD, number of patients (NSCLC; [6]): 11 | Response to gefitinib PD, number of patients (NSCLC; [7]): 2 | Response to gefitinib PR/SD, number of patients (NSCLC; [7]): 8 | Response to gefitinib PD, number of patients (NSCLC; [8]): 8 | Response to gefitinib PR/SD, number of patients (NSCLC; [8]): 6 | Response to gefitinib PD, number of patients (NSCLC; [9]): 8 | Response to gefitinib PR/SD, number of patients (NSCLC; [9]): 9
